Test results from patent US20240376163A1, “PEPTIDE FOR INHIBITING CALCINEURIN AND USE THEREOF” (Seoul National University R&DB Foundation, priority 2023, published 2024).

System: Jurkat T cells
Assay: mRNA sequencing of activated Jurkat T cells
Type: cell-based, human
Details: Jurkat T cells, P + I

## PEITVTPPTP [CABIN1-L-1-2]
  ABTB2 FPKM: 6.382 FPKM
  ACAP1 FPKM: 26.535 FPKM
  ACSF3 FPKM: 15.621 FPKM
  ADA FPKM: 73.254 FPKM
  ADAMTS17 FPKM: 0.882 FPKM
  ADCYAP1 FPKM: 3.219 FPKM
  ADORA2A FPKM: 1.475 FPKM
  AFF2 FPKM: 3.175 FPKM
  AGK FPKM: 14.306 FPKM
  ALDH1A2 FPKM: 6.66 FPKM
  ALOX5AP FPKM: 39.735 FPKM
  ANKEF1 FPKM: 2.575 FPKM
  ANO8 FPKM: 2.721 FPKM
  ANTXR2 FPKM: 55.18 FPKM
  APH1B FPKM: 4.206 FPKM
  APOBEC3B-AS1 FPKM: 20.386 FPKM
  APOBEC3F FPKM: 7.066 FPKM
  APOBEC3G FPKM: 9.231 FPKM
  APOL1 FPKM: 4.498 FPKM
  ARHGAP4 FPKM: 16.216 FPKM
  ARHGAP25 FPKM: 2.157 FPKM
  ARHGAP31 FPKM: 11.177 FPKM
  ARHGEF3 FPKM: 8.674 FPKM
  ARPP21 FPKM: 0.7 FPKM
  ASB13 FPKM: 2.543 FPKM
  ASNS FPKM: 19.026 FPKM
  ATHL1 FPKM: 6.014 FPKM
  ATP2A3 FPKM: 36.996 FPKM
  ATP6V0A4 FPKM: 18.558 FPKM
  ATP6V1B2 FPKM: 60.661 FPKM
  ATPAF1 FPKM: 10.283 FPKM
  AVPR2 FPKM: 1.492 FPKM
  B2M FPKM: 1302.512 FPKM
  BAHCC1 FPKM: 0.873 FPKM
  BCL2A1 FPKM: 51.928 FPKM
  BCL2L1 FPKM: 41.852 FPKM
  BCL3 FPKM: 17.15 FPKM
  BCL6 FPKM: 15.55 FPKM
  BCL7A FPKM: 12.277 FPKM
  BCL11B FPKM: 3.353 FPKM
  BEND6 FPKM: 1.409 FPKM
  BIN1 FPKM: 1.968 FPKM
  BIRC3 FPKM: 58.303 FPKM
  C10orf55 FPKM: 15.779 FPKM
  C11orf74 FPKM: 0.392 FPKM
  C21orf58 FPKM: 6.073 FPKM
  CABP1 FPKM: 1.689 FPKM
  CAMK2D FPKM: 6.138 FPKM
  CARHSP1 FPKM: 14.562 FPKM
  CBFA2T3 FPKM: 11.821 FPKM
  CBLB FPKM: 7.757 FPKM
  CBS FPKM: 3.916 FPKM
  CBX2 FPKM: 2.454 FPKM
  CCDC15 FPKM: 2.926 FPKM
  CCL3 FPKM: 0.502 FPKM
  CCL3L3 FPKM: 0.079 FPKM
  CCL20 FPKM: 1.279 FPKM
  CCND3 FPKM: 25.396 FPKM
  CCNE2 FPKM: 5.206 FPKM
  CD1B FPKM: 4.733 FPKM
  CD1E FPKM: 3.521 FPKM
  CD70 FPKM: 7.606 FPKM
  CD82 FPKM: 222.109 FPKM
  CD97 FPKM: 21.496 FPKM
  CD200 FPKM: 0.094 FPKM
  CD274 FPKM: 15.92 FPKM
  CDKN1A FPKM: 62.513 FPKM
  CDKN2D FPKM: 16.801 FPKM
  CECR1 FPKM: 3.984 FPKM
  CENPM FPKM: 14.415 FPKM
  CEP70 FPKM: 12.745 FPKM
  CERKL FPKM: 10.348 FPKM
  CFLAR FPKM: 3.022 FPKM
  CHEK2 FPKM: 7.751 FPKM
  CHPF2 FPKM: 34.939 FPKM
  CHPF FPKM: 12.714 FPKM
  CHRNA3 FPKM: 3.499 FPKM
  CHST12 FPKM: 12.639 FPKM
  CNN2 FPKM: 18.455 FPKM
  COL27A1 FPKM: 5.729 FPKM
  CPD FPKM: 26.602 FPKM
  CREB3L2 FPKM: 5.857 FPKM
  CREB5 FPKM: 1.966 FPKM
  CSF1 FPKM: 2.594 FPKM
  CSF2 FPKM: 0.314 FPKM
  CXCL8 FPKM: 3.327 FPKM
  CXCL11 FPKM: 3.793 FPKM
  CXCR4 FPKM: 34.014 FPKM
  CYTH1 FPKM: 30.15 FPKM
  DBP FPKM: 1.773 FPKM
  DCBLD2 FPKM: 15.588 FPKM
  DENND5A FPKM: 37.896 FPKM
  DNAJB5 FPKM: 19.35 FPKM
  DSTYK FPKM: 3.595 FPKM
  DTL FPKM: 5.275 FPKM
  DTX1 FPKM: 3.245 FPKM
  DUSP6 FPKM: 12.914 FPKM
  DUSP10 FPKM: 12.142 FPKM
  E2F7 FPKM: 4.018 FPKM
